Tested on: tubulin polymerization in HCT-116 cells
Experiment: Cellular Tubulin Polymerization Assay
Assay type: cell-based
Settings: Homo sapiens, Table 3, read-out: Tubulin Cellular (IC50 class)
Experimental: HCT-116 cells (catalog #CCL-247) are obtained from the American Type Culture Collect (ATCC, Manassas, VA). Briefly, cells are grown in McCoy's 5A supplemented with 10% characterized fetal bovine serum (Invitrogen, Carlsbad, CA) and 1% Penicillin/Streptomycin/L-Glutamine at 37° C., 5% CO2, and 95% humidity. Cells are expanded until reaching 70-95% confluency at which point they are subcultured or harvested for assay use. 450000 cells are added per well in 1500 μL complete growth medium in a tissue culture treated, 12-well plate. Plates are incubated for 18 to 24 h at 37° C., 5% CO2, and 95% humidity. At the end of the incubation, 2000 μL of base culture media is added to each well, followed by a serial dilution of compound. Plates are incubated for an additional 1 h at 37° C., 5% CO2, and 95% humidity. Lysates are generated by the addition of 100 μL Lysis and Microtubule Stabilization Buffer 1 (LMS01, Cytoskeleton Inc, Denver, CO) supplemented with GTP (BST06, Cytoskeleton Inc), ATP (BSA04, Cytoskeleton Inc), and Protease Inhibitor Cocktail Stock (PIC02, Cytoskeleton Inc). Cells are scraped off wells using a rubber cell scraper and collected in a clean 96-well plate. Lysates are centrifuged at 1000×g, 37° C. for 10 min and supernatant fraction is placed into an additional 96-well plate. The remaining pellet fraction is reconstituted in 100 μL LMS01 buffer and sonicated for 10 min. Pellet and Supernatant fractions are probed for α-tubulin via western blot analysis on the Jess System or equivalent (Bio-techne, Minneapolis, MN). Data is analyzed using Prism software (Graphpad, San Diego, CA) to calculate IC50values.

Structure (SMILES)	IC50
Cc1ccc(NC(=O)c2cnc(C(F)(F)F)nc2)cc1-c1ccnc(-c2ccnc(NC(=O)C3CC3)c2)c1 [Example 17]	500 to 1000 nM
Cc1ccc(NC(=O)c2cc(C(C)(F)F)cnn2)cc1-c1ccnc(-c2ccnc(NC(=O)C3CC3)c2)c1 [Example 57]	1000 to 10000 nM
Cc1ccc(NC(=O)c2cc(C3CC3)cnn2)cc1-c1ccnc(-c2ccnc(NC(=O)C3CC3)c2)c1 [Example 43]	< 100 nM

Other lines, results leading:

IC50	Structure (SMILES)
< 100 nM	Cc1ccc(NC(=O)c2cc(C#N)cnn2)cc1-c1ccnc(-c2ccnc(NC(=O)C3CC3)c2)c1 [Example 96, 5-cyano-N-(3-(2′-(cyclopropanecarboxamido)-[2,4′-bipyridin]-4-yl)-4-methylphenyl)pyridazine-3-carboxamide]
< 100 nM	Cc1ccc(NC(=O)c2cc(C(F)(F)F)cnn2)cc1-c1ccnc(-c2ccnc(NC(=O)C3CC3)c2)c1 [Example 67]
